According to patent US20180249707A1, “METHOD OF CONTROLLING ALGAE IN A BODY OF WATER” (priority 2013, published 2018):

Columns and labels:
M. aeruginosa UTEX 2385 = experiment: MIC 96-well microtiter plate assay in BG-11, 10 days; type: cell-based, Microcystis aeruginosa; details: for In vivo chlorophyll a of M. aeruginosa: 10 days, initial 0.1 ug/L
Protocol: MICs for the samples against M. aeruginosa were determined in a standard 96-well microtiter plate assay in BG-11 with a starting inoculum of ˜1×10^5 cells/mL. Algae plates were incubated for 10 days. MIC concentrations were determined visually, in vivo chlorophyll a was determined fluorometrically, and cell density was determined via direct counting. Samples were tested in duplicate.

Microcystis aeruginosa = experiment: 15-day flask exposure of Microcystis aeruginosa to DDA and Cutrine-Plus; type: cell-based; details: for Cell Densities of Microcystis aeruginosa 15 days after: initial 4.5×10^4 cells/mL
Protocol: (§1) The experiment was conducted for 15 days and was initiated using 100 mL BG-11 medium contained in 200 mL flasks. […] The experiment was initiated by exposing the algae to 0.1, 0.2, 0.4, 0.8, and 1.6 mg/L as DDA, 0.2, 0.6, 1.0 mg Cu/L Cutrine®-Plus, and combinations of DDA and Cutrine®-Plus. […] The solution was heated in a water bath and diluted to 70 mg/L using warmed deionized water. The concentration of DMSO was approximately 350 mg/L in the test beakers. Cutrine®-Plus stock solution was made at 50 mg/L using deionized water. Three replicates of each exposure concentration, along with three replicates of an untreated reference were tested. Each sample was Maintained at room temperature with 12-hours of light and 12-hours dark photo period.

Cladophora sp. = experiment: 15-day flask exposure of Cladophora sp. to DDA and Cutrine-Plus; type: cell-based; details: at concentrations comparable to Cutrine-Plus
Protocol: as §1, with “and 12-h” for “and 12-hours”, “dark photoperiod. […] 15 days after exposure. The Bars in FIG. 3 sharing the same letter are not different according to Fishers Protected LSD test at p≤0.05 significance level.” for “dark photo period.”

[1] = Solubility remark on stock solution preparation; type: physicochemical; details: stock solution made using 2% DMSO solution, heated

In the case of `CCCCCCCCCCCCN.Cl` [1-dodecylammonium chloride], the “In vivo chlorophyll a of M. aeruginosa” value (M. aeruginosa UTEX 2385; 0.031 active ppm) is reported as 7.20 µg/L, the “In vivo chlorophyll a of M. aeruginosa” value (M. aeruginosa UTEX 2385; 0.063 active ppm) is reported as 4.65 µg/L and the “In vivo chlorophyll a of M. aeruginosa” value (M. aeruginosa UTEX 2385; 0.125 active ppm) is reported as 2.05 µg/L. The “In vivo chlorophyll a of M. aeruginosa” value (M. aeruginosa UTEX 2385; 0.25 active ppm) was 0.15 µg/L, the “In vivo chlorophyll a of M. aeruginosa” value (M. aeruginosa UTEX 2385; 0.5 active ppm) was 0.00 µg/L and the MIC (M. aeruginosa UTEX 2385; Microcystis aeruginosa, UTEX2385, 240 h, determined visually, 10 days incubation, read-out: MIC values per individual sample, M. aeruginosa) was 0.25 µg/mL.

With `CCCCCCCCCCCCN` [dodecylamine] the “In vivo chlorophyll a of M. aeruginosa” value (M. aeruginosa UTEX 2385; 0.031 active ppm) was 7.85 µg/L, the “In vivo chlorophyll a of M. aeruginosa” value (M. aeruginosa UTEX 2385; 0.063 active ppm) was 5.75 µg/L and the “In vivo chlorophyll a of M. aeruginosa” value (M. aeruginosa UTEX 2385; 0.125 active ppm) was 2.60 µg/L. The “In vivo chlorophyll a of M. aeruginosa” value (M. aeruginosa UTEX 2385; 0.25 active ppm) was 0.35 µg/L, the “In vivo chlorophyll a of M. aeruginosa” value (M. aeruginosa UTEX 2385; 0.5 active ppm) was 0.00 µg/L and the “log reduction in M. aeruginosa cells” value (Microcystis aeruginosa; 0.4 mg/L, 15 days after start, compared to untreated reference) was 1 log. For the same compound, the “Chlorophyll a content of M. aeruginosa compared to untreated reference algae” value (Microcystis aeruginosa; 0.2 to 1.6 ppm (mg/L), 15 days after start, p<0.01) was “reduced”, the “Cell Densities of Microcystis aeruginosa 15 days after” value (shortened to “Cell Densities”) (Microcystis aeruginosa; DDA 0.1 mg/L, 15 days) was 5.2 × 10^6 cells/mL and the “Cell Densities” value (Microcystis aeruginosa; DDA 0.2 mg/L, 15 days) was 6.7 × 10^6 cells/mL. The “Cell Densities” value (Microcystis aeruginosa; DDA 0.4 mg/L, 15 days) was 8.0 × 10^5 cells/mL, the “Cell Densities” value (Microcystis aeruginosa; DDA 0.8 mg/L, 15 days) was less than 10000 cells/mL and the “Cell Densities” value (Microcystis aeruginosa; DDA 1.6 mg/L, 15 days) was less than 10000 cells/mL. The “concentration necessary to achieve similar results as Cutrine-Plus (cell count data)” value (Microcystis aeruginosa; M. aeruginosa control, 15 days) was 0.8 mg/L, the “effectiveness as an algaecide on Microcystis aeruginosa” value (Microcystis aeruginosa; at concentrations comparable to Cutrine-Plus) was “effective” and the “effectiveness as an algaecide on Cladophora sp.” value (Cladophora sp.) was “effective”. The solubility [1] was “low solubility”.
